Our source for the IC50 values is US12312337B2, “Compounds and methods for treating cancer” (ANTIDOTE IP HOLDINGS, LLC, priority 2019, dated 2025).

The target of the test is T1, human AhR (Homo sapiens, UniProt P35869).
T1 construct: INDIGO's Aryl Hydrocarbon Receptor (AhR) Reporter Cells include the luciferase reporter gene functionally linked to an AhR-responsive promoter
T1 sequence (P35869 11-848): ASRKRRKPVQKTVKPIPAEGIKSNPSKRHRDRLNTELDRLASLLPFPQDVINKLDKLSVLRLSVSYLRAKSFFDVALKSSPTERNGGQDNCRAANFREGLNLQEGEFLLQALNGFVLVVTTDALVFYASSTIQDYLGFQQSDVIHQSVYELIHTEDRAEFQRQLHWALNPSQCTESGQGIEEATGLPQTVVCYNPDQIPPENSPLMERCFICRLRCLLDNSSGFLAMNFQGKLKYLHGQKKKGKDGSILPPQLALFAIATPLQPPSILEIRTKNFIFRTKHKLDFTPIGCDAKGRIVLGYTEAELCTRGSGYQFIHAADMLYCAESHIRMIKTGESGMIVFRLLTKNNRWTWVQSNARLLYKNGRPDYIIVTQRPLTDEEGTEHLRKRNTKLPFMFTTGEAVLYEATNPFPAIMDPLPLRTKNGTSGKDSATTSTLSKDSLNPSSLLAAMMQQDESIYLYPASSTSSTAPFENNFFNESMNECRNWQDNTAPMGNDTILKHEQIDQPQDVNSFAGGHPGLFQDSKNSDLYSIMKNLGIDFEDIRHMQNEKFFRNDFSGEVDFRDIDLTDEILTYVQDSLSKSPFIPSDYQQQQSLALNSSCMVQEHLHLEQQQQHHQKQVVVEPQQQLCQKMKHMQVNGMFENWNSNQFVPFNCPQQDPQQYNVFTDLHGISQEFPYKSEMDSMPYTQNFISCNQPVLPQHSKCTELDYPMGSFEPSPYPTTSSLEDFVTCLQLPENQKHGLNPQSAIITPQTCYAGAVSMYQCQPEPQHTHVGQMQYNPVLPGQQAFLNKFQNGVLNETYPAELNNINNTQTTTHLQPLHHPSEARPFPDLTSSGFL
Kind of test: INDIGO AhR Reporter Assay (luciferase reporter cells, antagonist mode). The following applies: antagonist mode with 50 nM of VAF347 (AhR agonist); 22-24 hours incubation; luciferase RLU. It counts as cell-based. From the text:
INDIGO's Aryl Hydrocarbon Receptor (AhR) Reporter Cells include the luciferase reporter gene functionally linked to an AhR-responsive promoter. Thus, quantifying changes in luciferase expression in the treated reporter cells provides a sensitive surrogate measure of the changes in AhR activity. The principle application of this reporter assay is in the screening of test samples to quantify any functional activity, either agonist or antagonist, that they may exert against human AhR. Reporter Cells incorporate the cDNA encoding beetle luciferase, a 62 kD protein originating from the North American firefly (Photinus pyralis). Luciferase catalyzes the mono-oxidation of D-luciferin in a Mg^2+-dependent reaction that consumes 02 and ATP as co-substrates, and yields as products oxyluciferin, AMP, PPi, CO2, and photon emission. Luminescence intensity of the reaction is quantified using a luminometer, and is reported in terms of Relative Light Units (RLU's). In brief, 200 μl of Reporter Cells was dispensed into wells of the assay plate and pre-incubated for 4-6 hours. Following the pre-incubation period, culture media were discarded and 200 µl/well of the prepared 1×-concentration treatment media were added. Following 22-24 hours of incubation, treatment media were discarded and Luciferase Detection Reagent was added. The intensity of light emission (in units of “Relative Light Units” (RLU)) from each assay well was quantified using a plate-reading luminometer. The assay was run as a competitive binding assay in the antagonist mode with 50 nM of VAF347, a known AhR agonist.
In Table 4, IC50 values are reported as A, B, C, or D. A represents an IC50 value of less than 100 nM. B represents an IC50 value of equal or greater than 100 nM and less than 500 nM. C represents an IC50 value of equal or greater than 500 nM and less than 1 μM. D represents an IC50 value of equal or greater than 1 μM.
For orientation: A reporter such as luciferase makes a cellular process visible.

With `Cn1nc(C(F)(F)F)cc1NC(=O)c1ccc2cc(-c3ccccn3)cnc2c1` [Compound 100, N-(1-methyl-3-(trifluoromethyl)-1H-pyrazol-5-yl)-3-(pyridine-2-yl)quinoline-7-carboxamide], the IC50 (commonly the midpoint of a concentration-inhibition curve) is < 100 nM.
For `Cn1nc(C(F)(F)F)cc1NC(=O)c1ccc2cc(-c3cccnc3)cnc2c1` [Compound 77, N-[1-methyl-3-(trifluoromethyl)-1H-pyrazol-5-yl]-3-(pyridin-3-yl)quinoline-7-carboxamide], the IC50 is > 1000 nM.
`Cc1ccc(-c2cnc3cc(C(=O)Nc4cc(C(F)(F)F)nn4C)ccc3c2)cc1` [Compound 62, N-[1-Methyl-3-(trifluoromethyl)-1H-pyrazol-5-yl]-3-(4-methylphenyl) quinoline-7-carboxamide]: the IC50 lay in the range of 100 to 500 nM.
The compound `Cn1nc(-c2ccccc2C(F)(F)F)cc1NC(=O)c1cc2ncccc2cc1Cl` [Compound 44, 6-Chloro-N-(1-methyl-3-(2-(trifluoromethyl)phenyl)-1H-pyrazol-5-yl)quinoline-7-carboxamide] had an IC50 of 100 to 500 nM.
With `CN(C)S(=O)(=O)c1cc(NC(=O)c2cc3cc(-c4ccncc4F)cnc3s2)ccc1Cl` [Compound 153, N-[4-chloro-3-(N,N-dimethylsulfamoyl)phenyl]-5-(3-fluoropyridin-4-yl)-thieno[2,3-b]pyridine-2-carboxamide], the IC50 fell in the range of 500 to 1000 nM.
Consider `Cc1ccc(F)cc1-c1cc(NC(=O)c2cc3ncccc3cc2Cl)n(C)n1` [Compound 50, 6-Chloro-N-[3-(5-fluoro-2-methylphenyl)-1-methyl-1H-pyrazol-5-yl]quinoline-7-carboxamide], for which the IC50 is < 100 nM.
To `Cc1ccccc1-c1cc(NC(=O)c2ccc3cc(-c4cccs4)cnc3c2)n(C)n1` [Compound 97, N-(1-methyl-3-(o-tolyl)-1H-pyrazol-5-yl)-3-(thiophen-2-yl)quinoline-7-carboxamide] belongs < 100 nM; to `Cn1nc(C(F)(F)F)cc1NC(=O)c1ccc2cc(-c3nccs3)cnc2c1` [Compound 93, N-(1-methyl-3-(trifluoromethyl)-1H-pyrazol-5-yl)-3-(thiazol-2-yl)quinoline-7-carboxamide], < 100 nM.
With `Cn1nc(-c2cccc(C(F)(F)F)c2)cc1NC(=O)c1cc2ncccc2cc1Cl` [Compound 48, 6-Chloro-N-{1-methyl-3-[3-(trifluoromethyl)phenyl]-1H-pyrazol-5-yl}quinoline-7-carboxamide], the IC50 lay within 100 to 500 nM.
`Cn1cc(-c2ccccc2)nc1NC(=O)c1cc2ncccc2cc1Cl` [Compound 90, 6-chloro-N-(1-methyl-4-phenyl-1H-imidazol-2-yl)quinoline-7-carboxamide]: the IC50 lay within 500 to 1000 nM.
`Cc1ccccc1/N=N/c1ccc(NC(=O)c2ccnn2C)c(C)c1` [CH223191, reference compound] registered an IC50 of 100 to 500 nM.
For `Cn1nc(C(F)(F)F)cc1NC(=O)c1ccc2cc(-c3ccsc3)cnc2c1` [Compound 67, N-[1-Methyl-3-(trifluoromethyl)-1H-pyrazol-5-yl]-3-(thiophen-3-yl)quinoline-7-carboxamide] the value was < 100 nM.
In the case of `Cn1nc(C(F)(F)F)cc1NC(=O)c1ccc2cc(-c3cccc(F)c3)cnc2c1` [Compound 60, 3-(3-Fluorophenyl)-N-[1-methyl-3-(trifluoromethyl)-1H-pyrazol-5-yl]quinoline-7-carboxamide], the IC50 was > 1000 nM.
On to `CCN(CC)S(=O)(=O)c1cc(NC(=O)c2cc3cc(-c4ccc(F)cc4)cnc3s2)ccc1Cl` [Compound 141, N-[4-chloro-3-(N,N-diethylsulfamoyl)phenyl]-5-(4-fluorophenyl)-thieno[2,3-b]pyridine-2-carboxamide], for which the IC50 lay within 100 to 500 nM.
For `O=C(Nc1ccc(C(F)(F)F)nc1)c1ccc2c(N3CCOCC3)ccnc2c1` [Compound 80, 4-morpholino-N-(6-(trifluoromethyl)pyridin-3-yl)quinoline-7-carboxamide] the value was > 1000 nM.
